Experimental data: patent US20260041622A1, “Reduction of Signs of Skin Aging” (CarboCode S.A., priority 2022, published 2026)

Tests used:
[1] = test system: Reconstructed Human Epidermis (RHE); experiment: Reconstructed Human Epidermis (RHE) treated topically with ceramide in base emulsion, LC-MS/MS proteomics; format: cell-based; conditions: application on keratinocytes
Protocol: Material and methods: Reconstructed Human Epidermis (RHE) cell culture is used, as this system mimics the in vivo 3D structure of epidermal tissue as well as the conditions and processes that occur in normal epidermis. RHE are cultured using the medium provided by the manufacturer until analysis. RHE are maintained in survival for 24 hours, before RHE are topically treated with the respective ceramide in a base emulsion for 24 h. 3 RHE are treated with base emulsion alone and 3 more remained untreated as a control batch (Ctrl). RHE are incubated under classical cell culture conditions (37° C., 5% CO2).
Sample preparation and LC-MS/MS analysis: Protein is extracted using the Pierce Total Protein Extraction Kit (Thermo Fisher) according to manufacturer's recommendations. The protein is mixed with Laemmli buffer and heated to 37° C. for 30 min. Protein concentration is determined by the BCA method and standardized for all samples. The samples are separated by SDS-PAGE and digested with trypsin overnight. The peptides generated are acidified and separated. The mass spectra are queried using Proteome Discoverer (version 2.5). The resulting MS/MS data are queried against the Homo sapiens proteome UP000005640 (20371 reviewed entries). Results are filtered based on unique peptides >2, and global peptide scores. Analyses are performed using Proteome Discoverer 2.5 to check for overall sample quality.
Bioinformatics and statistical analysis: Proteomic analysis returned a mean total of 34961 high-quality peptides corresponding to a mean 2422 identifiable and quantifiable RHE proteins among conditions. A summary of proteins differentially expressed within conditions is provided in Annex 3. Proteins with a p-value 0.05 in at least one of the concentrations tested for a lipid are considered significant and used for pairwise comparisons. Relevant proteins are classified by their biological processes and associated pathways using the publicly available gene ontology (GO) database provided by the Gene Ontology Consortium and Reactome. Interactome analysis was performed using Cytoscape combined with STRING.

Laminin 5 = experiment: Laminin-5 immunostaining along the dermal-epidermal junction of living human skin explants; format: cell-based; conditions: 0.1% CNS18 in basic emulsion, topical, 4 days of treatment
Protocol: (§1) Human skin explants of an average diameter of 12 mm (±1 mm) were prepared on an abdoplasty coming from a person with a phototype II according to Fitzpatrick skin colour classification. The explants were kept in survival in BEM culture medium (BIO-EC's Explants Medium) at 37° C. in a humid, 5%—CO2 atmosphere.
(§2) The tested products E and P were applied topically at a rate of […] per 1 cm^2 explant (≈2 mg/cm^2), and spread using a small spatula on day 0 (D0), D2, D4 and D6. […] The culture medium was half renewed (l ml per well) on D2, D4 and D6.
(§3) On D0, the 3 explants from the batch TO were collected and cut into two parts. Half was fixed in buffered formalin solution, […] was frozen at −80° C. On D4 and D8, 3 explants from the concerned batches were collected and treated in the same way as in D0.
After fixation for 24 hours in buffered formalin, the samples were dehydrated and impregnated in paraffin using a Leica PEARL dehydration automat. The samples were embedded using a Leica EG 1160 embedding station. 5-μm-thick sections were made using a Leica RM 2125 Minot-type microtome, and the sections were mounted on Superfrost® histological glass slides. The frozen samples were cut into 7-μm-thick sections using a Leica CM 3050 cryostat. Sections were then mounted on Superfrost® plus silanized glass slides. […]
The immunostaining was assessed by microscopical observation.

Collagen IV = Collagen IV immunostaining along the dermal-epidermal junction of living human skin explants; format: cell-based; conditions: 0.1% CNS18 in basic emulsion, topical, 8 days of treatment
Protocol: as §1, §2, §3
After fixation for 24 hours in buffered formalin, the samples were dehydrated and impregnated in paraffin using a Leica PEARL dehydration automat. The samples were embedded using a Leica EG 1160 embedding station. […]
Collagen IV immunostaining was performed on frozen skin sections with a monoclonal anti-collagen IV antibody (Dako, ref M0785, clone CIV 22) diluted at 1:25 in PBS-BSA 0.3%-Tween 20 at 0.05% and incubated for 1 h at room temperature. […] The immunostaining was assessed by microscopical observation.

IL-1α = IL-1α ELISA quantification in BEM culture medium of skin explants; format: cell-based, human; conditions: 0.05% GlcCNS18 in basic emulsion, topical
Protocol: Human skin explants of an average diameter of 11 mm (+1 mm) were prepared on an abdoplasty coming from a person with a II phototype according to Fitzpatrick skin colour classification. The explants were kept in survival in BEM culture medium (BIO-EC's Explants Medium) at 37° C. in a humid, 5%—CO2 atmosphere.
The tested products E and P were applied topically at a rate of 2 μL per 1 cm^2 explant (2 mg/cm^2), and spread using a small spatula on day 0 (D0), D1, D2 and D5. […] The culture medium was half renewed (1 ml per well) on D1, D2 and completely renewed (2 mL per well) on D5.
On D0, the 3 explants from the batch TO were collected and cut into two parts. One part was fixed in buffered formalin solution, and the other part was frozen at −80° C. for histological analysis. On D6, 4 explants from the concerned batches were collected and treated in the same way than in D0. The culture medium BEM of all batches was collected on D6 (2 mL per explant) and stored at −20° C. for dosages.
IL-1α dosage was performed with human IL-1α ELISA kit (Cayman, ref 583301). According to provider's guidelines, the culture medium and the IL-1α standard were incubated with acetylcholinesterase (AChE) Fab′ conjugate binding IL-1α in wells which contain coated IL-1α antibody, overnight at 4° C. […] Absorbance at 412 nm was measured using the M200Pro Tecan microplate reader and Magellan7 software. […]

[2] = 0.01%, 0.03%, 0.15% ceramide in vehicle vs vehicle, 24 h

regulation of NAD-dependent protein deacetylase sirtuin-2 (sirtuin-2) [1] | regulation of cytochrome c oxidase subunit 6C [1] | regulation of phosphomevalonate kinase [1] | Structure (SMILES) | regulation of ATP synthase subunit delta (mitochondrial) [1] | regulation of ATP synthase subunit g (mitochondrial) [1] | regulation of ECM1 (Extracellular Matrix Protein 1) [1, 2] | regulation of Syndecan-1 [1, 2] | regulation of LC3A (microtubule-associated proteins 1A/1B light chain 3A) [1] | regulation of protein S100-A2 [1] | regulation of protein S100-A9 [1] | regulation of ATP-dependent zinc metalloprotease YME1L1 [1] | regulation of NAD-dependent malic enzyme (mitochondrial) [1] | also measured
up-regulation | upregulation | upregulation | CCCCCCCCCCCCCCCCCC(=O)NC(CO)C(O)CCCCCCCCCCCCCCC (centres unmarked) [Cer NG] | upregulation | upregulation | up-regulation |  |  |  |  |  |  | regulation of small proline-rich protein 2D [1]: up-regulation; regulation of Integrin alpha-3 [1, 2]: up-regulation
 |  |  | CCCCCCCCCCCCCCCCCC(=O)NC(CO)C(O)C(O)CCCCCCCCCCCCCC (centres unmarked) [Cer NP] |  |  | up-regulation | up-regulation |  |  |  |  |  | regulation of Keratin-17 [1]: up-regulation
up-regulation |  |  | CCCCCCCCCCCCCC=CC(O)C(CO)NC(=O)CCCCCCCCCCCCCCCCC (centres unmarked) [Cer NS] |  |  | up-regulation | up-regulation | up-regulation | down-regulation | down-regulation |  |  | regulation of Kallikrein-5 [1]: up-regulation; regulation of cornifin-B [1]: up-regulation; regulation of Laminin-5 [1, 2]: up-regulation; regulation of Plakophilin-2 [1, 2]: up-regulation; increase in expression of laminin-5 (Laminin 5): 26%; increase in expression of collagen IV (Collagen IV): 41%
up-regulation | upregulation | upregulation | CCCCCCCCCCCCCC=CC(O)C(COC1OC(CO)C(OC2OC(CO)C(O)C(O)C2O)C(O)C1O)NC(=O)CCCCCCCCCCCCCCCCC (centres unmarked) [LacCer] | upregulation | upregulation | up-regulation | up-regulation |  |  |  | upregulation | upregulation | regulation of Glutathione S-transferase Mu 2 [1]: up-regulation; regulation of LC3B (microtubule-associated proteins 1A/1B light chain 3B) [1]: up-regulation; regulation of cystathione-gamma-lyase [1]: up-regulation; regulation of cytochrome b-cl complex subunit 9 [1]: upregulation; regulation of cytochrome c oxidase subunit 2 [1]: upregulation; regulation of cytochrome c oxidase subunit NDUFA4 [1]: upregulation

Structure (SMILES) | regulation of NAD-dependent protein deacetylase sirtuin-2 (sirtuin-2) [1] | regulation of cytochrome c oxidase subunit 6C [1] | regulation of phosphomevalonate kinase [1] | regulation of ATP synthase subunit delta (mitochondrial) [1] | regulation of ATP synthase subunit g (mitochondrial) [1] | regulation of ECM1 (Extracellular Matrix Protein 1) [1, 2] | regulation of Syndecan-1 [1, 2] | regulation of LC3A (microtubule-associated proteins 1A/1B light chain 3A) [1] | regulation of protein S100-A2 [1] | regulation of protein S100-A9 [1] | regulation of ATP-dependent zinc metalloprotease YME1L1 [1] | regulation of NAD-dependent malic enzyme (mitochondrial) [1] | also measured
CCCCCCCCCCCCCC=CC(O)C(COC1OC(CO)C(O)C(O)C1O)NC(=O)CCCCCCCCCCCCCCCCC (centres unmarked) [GlcCer] |  | up-regulation | up-regulation | up-regulation | up-regulation |  |  | up-regulation | down-regulation | down-regulation | up-regulation | up-regulation | regulation of NADH dehydrogenase [ubiquinone]1 alpha subcomplex subunit 8 [1]: up-regulation; regulation of NADH dehydrogenase [ubiquinone] iron-sulfur protein 2 (mitochondrial) [1]: up-regulation; regulation of interleukin-1-alpha (IL-1α) [1]: down-regulation; regulation of nuclear factor NF-kappa-B p105 subunit [1]: down-regulation; IL-1α release (IL-1α; day 6): increased; IL-1α release (IL-1α; day 6, listed as GlcCNS): significant increase
